From ChEMBL document CHEMBL3137667, “[Drug-induced liver injury; fourteenth updated edition of the bibliographic database of liver injuries and related drugs]” (Gastroenterol Clin Biol, 2004)

Tests used:
[1] = Highest frequency of acute liver toxicity observed during clinical trials, expressed as a percentage. [column '% AIGUE' in source]; settings: human
[2] = human
[3] = Highest frequency of moderate liver toxicity observed during clinical trials, expressed as a percentage. [column '% BIOL' in source]; settings: human
[4] = human; remark: listed apart in the source
[5] = human; remark: listed apart in the source
[6] = human; remark: listed apart in the source
[7] = human, serum, 4383 h
[8] = human, serum
[9] = human; remark: listed apart in the source
[10] = human; remark: listed apart in the source
[11] = human; remark: listed apart in the source
[12] = human, serum; remark: listed apart in the source
[13] = human; remark: listed apart in the source
[14] = human; remark: listed apart in the source
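Wherever Hepatotoxicity (association with vascular disease) is given: count of indexed literature references reporting vascular liver injury in humans, e.g. peliosis hepatitis, hepatic veno-occlusive disease or Budd-Chiari syndrome.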
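Wherever Hepatotoxicity (benign tumour) is given: value is a count of indexed literature references citing a benign tumour confirmed by histopathology.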
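Wherever Hepatotoxicity (choleostasis) is given: human cholestatic liver injury, shown by histopathology or by peak ALT or AST elevation over alkaline phosphatase ratio below 2, value counts indexed literature reports.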
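Wherever Hepatotoxicity (chronic liver disease) is given: chronic liver injury confirmed by histopathology or persistently raised serum aminotransferase activity beyond 6 months, value given as the count of indexed literature references.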
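Wherever Hepatotoxicity (cirrhosis) is given: value is a count of indexed literature references reporting cirrhosis confirmed by histopathology.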
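Wherever Hepatotoxicity (cytolytic) is given: human cytolytic liver injury, shown by histopathology or by a ratio above 5 of peak ALT or AST elevation to alkaline phosphatase elevation, value counts indexed references.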
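Wherever Hepatotoxicity (granulomatous hepatitis) is given: value is a count of indexed literature references reporting granulomatous liver disease confirmed by histopathology.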
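Wherever Hepatotoxicity (malignant tumour) is given: malignant tumour confirmed by histopathology, value gives the count of indexed literature references reporting it.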
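Wherever Hepatotoxicity (severe hepatitis) is given: human clinical data: severe hepatitis, meaning potentially life-threatening liver failure or clinically observed cases, the value counts how many indexed literature references report it.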
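Wherever Hepatotoxicity (steatosis) is given: steatosis confirmed by histopathology, value is the count of indexed references.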

SMILES | Hepatotoxicity (acute) [1] [%] | Hepatotoxicity (association with vascular disease) [2] | Hepatotoxicity (moderate) [3] [%] | Hepatotoxicity (severe hepatitis) [4] | Hepatotoxicity (steatosis) [5] | Hepatotoxicity (granulomatous hepatitis) [6] | Hepatotoxicity (chronic liver disease) [7] | Hepatotoxicity (moderate) [8] | Hepatotoxicity (cytolytic) [9] | Hepatotoxicity (benign tumour) [10] | Hepatotoxicity (cirrhosis) [11] | Hepatotoxicity (acute) [12] | Hepatotoxicity (malignant tumour) [13] | Hepatotoxicity (choleostasis) [14]
NS(=O)(=O)OCCCCCCCOS(N)(=O)=O | 0 | 0 | 25 | 0 | 0 | 0 | 0 | 2 | 0 | 0 | 0 | 0 | 0 | 0
CO[C@@H]1O[C@H](CO)[C@H](O)[C@H](O[C@@H]2O[C@@H](C(=O)O)[C@@H](OC)[C@H](O)[C@H]2O)[C@H]1NC(C)=O | 0 | 0 | 0 | 0 | 0 | 0 | 0 | 1 | 0 | 0 | 0 | 0 | 0 | 0
CC[N+](C)(C/C=C/C1=C(C(=O)[O-])N2C(=O)[C@@H](NC(=O)/C(=N\OCF)c3nsc(N)n3)[C@H]2SC1)CC(N)=O (some centres undefined) | 0 | 0 | 37.5 | 0 | 0 | 0 | 0 | 51 | 0 | 0 | 0 | 0 | 0 | 0
CO/N=C(\C(=O)N[C@@H]1C(=O)N2C(C(=O)O)=C(C)CS[C@H]12)c1csc(N)n1 | 0 | 0 | 23.1 | 0 | 0 | 0 | 0 | 30 | 0 | 0 | 0 | 0 | 0 | 0
Cc1c(C)c2ccc(OCCCN3CCN(Cc4ccc(Cl)cc4)CC3)cc2oc1=O | 0 | 0 | 2 | 0 | 0 | 0 | 0 | 1 | 0 | 0 | 0 | 0 | 0 | 0
CNC(=O)[C@@H](NC(=O)[C@H](CC(C)C)[C@H](O)C(=O)NO)C(C)(C)C | 0 | 0 | 0 | 0 | 0 | 0 | 0 | 1 | 0 | 0 | 0 | 0 | 0 | 0
CC(OC(=O)OC1CCCCC1)OC(=O)C1=C(CSc2nnnn2CCN(C)C)CS[C@@H]2[C@H](NC(=O)Cc3csc(N)n3)C(=O)N12 (some centres undefined) | 0 | 0 | 28.6 | 0 | 0 | 0 | 0 | 25 | 0 | 0 | 0 | 0 | 0 | 0
Cc1c(N)nc([C@@H](CC(N)=O)NC[C@@H](N)C(N)=O)nc1C(=O)N[C@@H](C(=O)N[C@@H](C)[C@H](O)[C@@H](C)C(=O)N[C@H](C(=O)NCCc1nc(-c2nc(C(=O)NCCCN(C)CCCN(Cc3ccc(OCc4ccccc4)c(OCc4ccccc4)c3)Cc3ccc(OCc4ccccc4)c(OCc4ccccc4)c3)cs2)cs1)[C@@H](C)O)C(O[C@H]1O[C@@H](CO)[C@H](O)[C@@H](O)[C@H]1O[C@H]1O[C@@H](CO)[C@@H](O)[C@H](OC(N)=O)[C@@H]1O)c1c[nH]cn1 (some centres undefined) | 0 | 0 | 23.5 | 0 | 0 | 0 | 0 | 1 | 0 | 0 | 0 | 0 | 0 | 0
CC(=O)OCOC(=O)C1=C(COC(N)=O)SC2[C@H]([C@H](C)O)C(=O)N12 (some centres undefined) | 0 | 0 | 20 | 0 | 0 | 0 | 0 | 25 | 0 | 0 | 0 | 0 | 0 | 0
CO[C@H]1O[C@@H]2O[C@@]3(C)CC[C@H]4[C@H](C)CC[C@@H]([C@H]1C)[C@@]24OO3 | 0 | 0 | 17 | 0 | 0 | 0 | 0 | 1 | 0 | 0 | 0 | 0 | 0 | 0
CCOC(=O)[C@H](CCc1ccccc1)N[C@@H](C)C(=O)N(CC(=O)O)C1Cc2ccccc2C1 | 0 | 0 | 1.1 | 0 | 0 | 0 | 0 | 1 | 0 | 0 | 0 | 0 | 0 | 0
